# Legend:
# CYPIR (Rice Flatsedge) = test: Preemergence weed control under flooded paddy conditions; type: in vivo, Cyperus iria; conditions: rated 3-4 weeks after treatment
# Procedure, shortened: (§1)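 Visual injury scored 0-9 against control three to four weeks post-treatment, greenhouse-grown. Application: acetone/water (50/50) solutions dosed directly into flood water (1.5-3 cm over silt loam, planted top 0.5 cm), roughly 0.0313 to 0.500 kg/ha active ingredient.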
# [1] = system: TRZAWR (Wheat, Winter, cv Riband); test: Preemergence herbicidal evaluation; type: in vivo, Triticum aestivum; conditions: rated 4-5 weeks after treatment
# Procedure, shortened: (§2)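 Herbicidal effect scored visually, 0-9, at 4 to 5 weeks against a control; compound applied preemergence by aqueous acetone spray to seeded soil at about 0.0156 to 0.500 kg/ha.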
# ORYSAT (Rice, Tebonnet) [2] = test: Postemergence herbicidal evaluation; type: in vivo, Oryza sativa, (L.) Tebonnet
# Procedure, shortened: (§3)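 ~2-wk seedlings; postemergence spray, 40 psi; vehicle 1:1 acetone:water + 0.5% Tween 20; rate ≈0.0156–0.500 kg/ha; greenhouse hold; scored 4–5 wk after treatment, 0–9 scale vs control; repeat tests averaged.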
# [3] = system: SAGPY (Arrowhead (Pygmaea)); test: Preemergence weed control under flooded paddy conditions; type: in vivo, Sagittaria pygmaea; conditions: rated 3-4 weeks after treatment
# Procedure, shortened: as §1
# SETVI (Foxtail, Green) = test: Preemergence herbicidal evaluation; type: in vivo, Setaria viridis; conditions: rated 4-5 weeks after treatment
# Procedure, shortened: as §2
# CYPSE (Flatsedge) = test: Postemergence weed control under flooded paddy conditions; type: in vivo, Cyperus serotinus; conditions: postemergence weeds, 3-4 weeks after treatment
# Procedure, shortened: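 Flood-water application, about 0.0313–0.500 kg/ha a.i. in aqueous/acetone 50/50 v/v; water depth 1.5–3 cm throughout. Weeds 3–5 cm, rice 1.5–2.5 leaf. Greenhouse; 0–9 visual rating vs control at 3–4 wk.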
# ZEAMX (Corn, Field) = test: Preemergence herbicidal evaluation; type: in vivo, Zea mays; conditions: rated 4-5 weeks after treatment
# Procedure, shortened: as §2
# [4] = system: CHEAL (Lambsquarters, Common); test: Postemergence herbicidal evaluation; type: in vivo, Chenopodium album
# Procedure, shortened: as §3
# GALAP (Galium) = test: Preemergence herbicidal evaluation; type: in vivo, Galium aparine; conditions: rated 4-5 weeks after treatment
# Procedure, shortened: as §2
# ECHCG (Barnyardgrass) = test: Postemergence herbicidal evaluation; type: in vivo, Echinochloa crus-galli
# Procedure, shortened: as §3
# [5] = system: GLXMAW (Soybean, Williams); test: Preemergence herbicidal evaluation; type: in vivo, Glycine max, (L.) Merr. cv Williams; conditions: rated 4-5 weeks after treatment
# Procedure, shortened: as §2
# ORYSAT (Rice, Tebonnet) [6] = test: Preemergence herbicidal evaluation; type: in vivo, Oryza sativa, (L.) Tebonnet; conditions: rated 4-5 weeks after treatment
# Procedure, shortened: as §2
# CASOB (Sicklepod) = test: Postemergence herbicidal evaluation; type: in vivo, Cassia obtusifolia
# Procedure, shortened: as §3
structure (smiles),measurement,setting,value
"CCOP(=O)(CN1C(=O)CSC1=Nc1cc(-n2c(=O)cc(C(F)(F)F)n(C)c2=O)c(F)cc1Cl)OCC [Compound 35, Diethyl {{2-{{2-chloro-5-[3,6-dihydro-3-methyl-2,6-dioxo-4-(trifluoromethyl)-1(2H)-pyrimidinyl]-4-fluorophenyl}imino}-4-oxo-3-thiazolidinyl}methyl}phosphonate]",Herbicidal rating CYPIR,CYPIR (Rice Flatsedge); 0.1250 kg/ha,0.0
same,Herbicidal rating CYPIR,CYPIR (Rice Flatsedge); 0.2500 kg/ha,0.0
same,Preemergence herbicidal rating TRZAWR,[1]; rate 0.0625 kg/ha,0.0
same,Preemergence herbicidal rating TRZAWR,[1]; rate 0.1250 kg/ha,1.0
same,Preemergence herbicidal rating TRZAWR,[1]; rate 0.2500 kg/ha,3.0
same,Postemergence herbicidal rating ORYSAT,"ORYSAT (Rice, Tebonnet) [2]; Rate 0.0158 kg/ha",2.0
same,Postemergence herbicidal rating ORYSAT,"ORYSAT (Rice, Tebonnet) [2]; Rate 0.0315 kg/ha",3.0
same,Postemergence herbicidal rating ORYSAT,"ORYSAT (Rice, Tebonnet) [2]; Rate 0.0630 kg/ha",3.5
same,Herbicidal rating SAGPY,[3]; 0.1250 kg/ha,0.0
same,Herbicidal rating SAGPY,[3]; 0.2500 kg/ha,3.0
same,Preemergence herbicidal rating SETVI,"SETVI (Foxtail, Green); rate 0.0625 kg/ha",0.0
same,Preemergence herbicidal rating SETVI,"SETVI (Foxtail, Green); rate 0.1250 kg/ha",0.0
same,Preemergence herbicidal rating SETVI,"SETVI (Foxtail, Green); rate 0.2500 kg/ha",9.0
same,Herbicidal rating CYPSE,CYPSE (Flatsedge); rate 0.1250 kg/ha,0.0
same,Herbicidal rating CYPSE,CYPSE (Flatsedge); rate 0.2500 kg/ha,0.0
same,Preemergence herbicidal rating ZEAMX,"ZEAMX (Corn, Field); rate 0.0625 kg/ha",0.0
same,Preemergence herbicidal rating ZEAMX,"ZEAMX (Corn, Field); rate 0.1250 kg/ha",0.0
same,Preemergence herbicidal rating ZEAMX,"ZEAMX (Corn, Field); rate 0.2500 kg/ha",0.0
same,Postemergence herbicidal rating CHEAL,[4]; Rate 0.0158 kg/ha,7.0
same,Postemergence herbicidal rating CHEAL,[4]; Rate 0.0315 kg/ha,9.0
same,Postemergence herbicidal rating CHEAL,[4]; Rate 0.0630 kg/ha,9.0
same,Preemergence herbicidal rating GALAP,GALAP (Galium); rate 0.0625 kg/ha,0.0
same,Preemergence herbicidal rating GALAP,GALAP (Galium); rate 0.1250 kg/ha,0.0
same,Preemergence herbicidal rating GALAP,GALAP (Galium); rate 0.2500 kg/ha,9.0
same,Postemergence herbicidal rating ECHCG,ECHCG (Barnyardgrass); Rate 0.0158 kg/ha,0.0
same,Postemergence herbicidal rating ECHCG,ECHCG (Barnyardgrass); Rate 0.0315 kg/ha,0.0
same,Postemergence herbicidal rating ECHCG,ECHCG (Barnyardgrass); Rate 0.0630 kg/ha,1.0
same,Preemergence herbicidal rating GLXMAW,[5]; rate 0.0625 kg/ha,0.0
same,Preemergence herbicidal rating GLXMAW,[5]; rate 0.1250 kg/ha,0.0
same,Preemergence herbicidal rating GLXMAW,[5]; rate 0.2500 kg/ha,2.0
same,Preemergence herbicidal rating ORYSAT,"ORYSAT (Rice, Tebonnet) [6]; rate 0.0625 kg/ha",0.0
same,Preemergence herbicidal rating ORYSAT,"ORYSAT (Rice, Tebonnet) [6]; rate 0.1250 kg/ha",0.0
same,Preemergence herbicidal rating ORYSAT,"ORYSAT (Rice, Tebonnet) [6]; rate 0.2500 kg/ha",0.0
same,Postemergence herbicidal rating CASOB,CASOB (Sicklepod); Rate 0.0158 kg/ha,0.0
same,Postemergence herbicidal rating CASOB,CASOB (Sicklepod); Rate 0.0315 kg/ha,3.0
same,Postemergence herbicidal rating CASOB,CASOB (Sicklepod); Rate 0.0630 kg/ha,9.0

# Reference: patent US20020137929A1, “1 - (3-heterocyclylphenyl) isothiourea, -isourea, -guanidine and -amidine herbicidal agents” (Intellectual Property Department, BASF Aktiengesellschaft, priority 1998, published 2002)
